# From patent publication US12052991B2, “Substituted pyridinyloxybenzenes and salts thereof and use thereof as herbicidal agents” (Bayer Aktiengesellschaft, priority 2018, dated 2024)
# Assays:
# Type in all cases: in vivo
# [1] = test system: Abutilon theophrasti (ABUTH); assay: Herbicidal post-emergence action (Table B5); conditions: 1280 g/ha; rated visually after about 3 weeks; 100% = plants have died, 0% = like control plants
# Summary of the method: (§1)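 Greenhouse pot-grown weeds in sandy loam, sprayed at the one-leaf stage (2–3 weeks post-sowing) with WP or EC formulations plus 0.5% additive at 600 l/ha water, at 1280 or 320 g/ha. Visual % activity versus untreated controls rated about 3 weeks later (100% = dead).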
# [2] = test system: Amaranthus retroflexus (AMARE); assay: Herbicidal post-emergence action (Table B6); conditions: visual rating about 3 weeks after treatment, 100% = plants have died, 0% = like control plants
# Summary of the method: as §1
# [3] = test system: Echinochloa crus-galli (ECHCG); assay: Herbicidal pre-emergence action, test C (Table C1); conditions: dosage 1280 g/ha; visual scoring after about 3 weeks; 100% = plants have died, 0% = like control plants
# Description: Seeds of mono- and dicotyledonous weed plants were placed in plastic pots in sandy loam soil (doubly sown with one species each of mono- or dicotyledonous weed plants per pot) and covered with soil. The compounds of the invention, formulated in the form of wettable powders (WP) or as emulsion concentrates (EC), were then applied onto the surface of the covering soil as aqueous suspension or emulsion with addition of 0.5% additive at a water application rate of 600 liters per hectare (converted). After the treatment, the pots were placed in a greenhouse and kept under good growth conditions for the test plants. After about 3 weeks, the effect of the preparations was scored visually in comparison with untreated controls as percentages. For example, 100% activity=the plants have died, 0% activity=like control plants. Tables C1 to C12 below show the effects of selected compounds of the general formula (I) according to Table 1 on various harmful plants and an application rate corresponding to 1280 or 320 g/ha, which were obtained by the experimental procedure mentioned above.
# Poa annua (POAAN) = assay: Herbicidal pre-emergence action, test C (Table C3); conditions: dosage 1280 g/ha; visual scoring after about 3 weeks; 100% = plants have died, 0% = like control plants
# Summary of the method: (§2)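 % herbicidal effect, visual, vs untreated; 0% = as control, 100% = plants dead. Scored ~3 wk post-application. Rate 1280 or 320 g/ha onto covering soil pre-emergence.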
# Setaria viridis (SETVI) = assay: Herbicidal pre-emergence action, test C (Table C4); conditions: dosage 1280 g/ha; visual scoring after about 3 weeks; 100% = plants have died, 0% = like control plants
# Summary of the method: as §2
# [4] = test system: Abutilon theophrasti (ABUTH); assay: Herbicidal pre-emergence action, test C (Table C5); conditions: dosage 1280 g/ha; visual scoring after about 3 weeks; 100% = plants have died, 0% = like control plants
# Summary of the method: as §2
# [5] = test system: Amaranthus retroflexus (AMARE); assay: Herbicidal pre-emergence action, test C (Table C6); conditions: dosage 1280 g/ha; visual scoring after about 3 weeks; 100% = plants have died, 0% = like control plants
# Summary of the method: as §2
# [6] = test system: Matricaria inodora (MATIN); assay: Herbicidal pre-emergence action, test C (Table C7); conditions: dosage 1280 g/ha; visual scoring after about 3 weeks; 100% = plants have died, 0% = like control plants
# Summary of the method: as §2
# Stellaria media (STEME) = assay: Herbicidal pre-emergence action, test C (Table C8); conditions: dosage 1280 g/ha; visual scoring after about 3 weeks; 100% = plants have died, 0% = like control plants
# Summary of the method: as §2
# [7] = test system: harmful plants ABUTH, AMARE, ECHCG, LOLRI, MATIN, POAAN, SETVI, STEME, ALOMY, DIGSA, KCHSC and VERPE; assay: Herbicidal post-emergence action, summary of Tables B1-B12; conditions: application rate of 1280 or 320 g of active ingredient per hectare; summary in words
# Summary of the method: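 Greenhouse weeds in sandy loam treated post-emergence at the one-leaf stage, 2–3 weeks after sowing, with WP or EC formulations sprayed with 0.5% additive at 600 L/ha water, 1280 or 320 g/ha. Damage rated visually after about 3 weeks versus untreated controls (0% = like control, 100% = dead).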
# [8] = test system: harmful plants ABUTH, AMARE, ECHCG, LOLRI, MATIN, POAAN, SETVI, STEME, ALOMY, DIGSA, KCHSC and VERPE; assay: Herbicidal pre-emergence action (test C), summary of Tables C1-C12; conditions: application rate of 1280 or 320 g of active ingredient per hectare; summary in words
# Summary of the method: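 Pre-emergence pot test in sandy loam: WP or EC formulations were sprayed onto the covering soil with 0.5% additive at 600 L/ha water, at 1280 or 320 g/ha. Plants were kept in the greenhouse, and activity was rated visually about 3 weeks later as % versus untreated controls (100% = dead).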
# Agrostis tenuis (AGSTE) = assay: Herbicidal early post-emergence action (Table A1); conditions: 1900 g/ha; scored visually 9 to 12 days after treatment; 100% = plants have died, 0% = like control plants
# Method: (§3) Seeds of monocotyledonous and dicotyledonous weed plants were placed in 96-well microtiter plates in quartz sand and grown in a climatized chamber under controlled growth conditions. 5 to 7 days after sowing, the test plants were treated at the cotyledon stage. The compounds according to the invention, formulated in the form of emulsion concentrates (EC), were applied with a water application rate of the equivalent of 2200 liters per hectare. After the test plants had been left to stand in the climatized chamber for 9 to 12 days under optimum growth conditions, the effect of the preparations was scored visually in comparison to untreated controls. For example, 100% activity=the plants have died, 0% activity=like control plants. Tables A1 to A8 below show the effects of selected compounds of the general formula (I) according to Table 1 on various harmful plants and an application rate corresponding to 1900 g/ha, which were obtained by the experimental procedure mentioned above.
# [9] = test system: harmful plants AGSTE, DIPTE, LOLPE, MATCH, POAAN, SETVI, STEME and VERPE; assay: Herbicidal early post-emergence action, summary of Tables A1-A8; conditions: application rate of 1900 g of active ingredient per hectare; summary in words
# Method: as §3, with “plants.” for “plants. Tables A1 to A8 below show the effects of selected compounds of the general formula (I) according to Table 1 on various harmful plants and an application rate corresponding to 1900 g/ha, which were obtained by the experimental procedure mentioned above.”
# Tables A1 to A8 below show the effects of selected compounds of the general formula (I) according to Table 1 on various harmful plants and an application rate corresponding to 1900 g/ha, which were obtained by the experimental procedure mentioned above.
# As the results of Tables A1-A8 show, compounds no.
Structure (SMILES),Post-emergence action against Abutilon theophrasti (ABUTH) [1],Post-emergence action against Amaranthus retroflexus (AMARE) ([2]; dosage 320 g/ha),Post-emergence action against Amaranthus retroflexus (AMARE) ([2]; dosage 1280 g/ha),Pre-emergence action against Echinochloa crus-galli (ECHCG) [3],Pre-emergence action against Poa annua (POAAN) (Poa annua (POAAN)),Pre-emergence action against Setaria viridis (SETVI) (Setaria viridis (SETVI)),Pre-emergence action against Abutilon theophrasti (ABUTH) [4],Pre-emergence action against Amaranthus retroflexus (AMARE) [5],Pre-emergence action against Matricaria inodora (MATIN) [6],Pre-emergence action against Stellaria media (STEME) (Stellaria media (STEME)),herbicidal activity against the harmful plants of Tables B1-B12 in post-emergence treatment [7],herbicidal activity against the harmful plants of Tables C1-C12 in pre-emergence treatment [8],Early post-emergence effect against Agrostis tenuis (AGSTE) (Agrostis tenuis (AGSTE)),herbicidal activity against the harmful plants of Tables A1-A8 in early post-emergence treatment [9]
N#Cc1ccc(Oc2cccc(F)c2-c2cc(C(F)F)on2)nc1 [Example 1-11],100%,100%,100%,90%,90%,90%,100%,100%,90%,100%,very good herbicidal activity,very good herbicidal activity,,
Fc1cccc(Oc2ncc(Cl)cc2Cl)c1-c1cc(C(F)F)on1 [Example 1-12],,,,,,,,,,,,,80%,very good herbicidal activity
